Laboratory results as given in PMC9105583, “Stereoselective Synthesis and Anticancer Activity of 2,6-Disubstituted trans-3-Methylidenetetrahydropyran-4-ones” (Materials, 2022).
Like-named read-outs stand apart in the source and are kept apart here.

Key:
Type in all cases: cell-based, human
HUVEC cells = assay: MTT assay, metabolic activity (cytotoxicity), normal cell line; conditions: Homo sapiens, HUVEC, 48 h incubation, mean ± SEM
Protocol: (§1) Metabolic activity by MTT assay
(§2) The MTT (3-([…])-2,5-diphenyl tetrazolium bromide) assay was performed to assess the cytotoxicity of the investigated compounds. Briefly, HL-60, MCF-7 and HUVEC cells were seeded in 24-well plates at density of 8 × 10^4/mL. After 24 h incubation, cells were treated with various concentrations of the compounds and incubated for another 24 h or 48 h. Then, the cells were incubated with MTT solution (100 µL; 5 mg/mL in PBS) for 1.5 h and centrifuged. The formazan product was dissolved in DMSO, and the absorption was measured using FlexStation 3 Multi-Mode Microplate Reader (Molecular Devices, LLC, San Jose, CA, USA) at 560 nm. Assays were performed twice in triplicate for each analog.
(§3) The cytotoxic activity of the obtained methylidenetetrahydropyran-4-ones was investigated in two cancer cell lines, human promyelocytic leukemia (HL-60) and breast cancer adenocarcinoma (MCF-7), and in healthy umbilical vein endothelial cells (HUVEC), for comparison. An anticancer drug, carboplatin, was used as a reference compound. Metabolic activity of the cells was assessed after 48 h incubation with various concentrations of the analogs (Table 6). Purity of all final compounds was determined on the basis of their ^1H NMR spectra (signal-to-noise ratio and presence of unidentified signals) and was at least 98%, in most cases even over 99%.

HL-60 cells = assay: MTT assay, metabolic activity (cytotoxicity); conditions: for IC50: MTT
Protocol: as §1, §2, §3

MCF-7 cells = assay: MTT assay, metabolic activity (cytotoxicity); conditions: Homo sapiens, MCF7, 48 h incubation, mean ± SEM
Protocol: as §1, §2, §3

[1] = Homo sapiens, HL-60, 24 h, 24 h incubation, read-out: IC50 HL-60 after 24 h incubation
[2] = Homo sapiens, HL-60, 48 h, 48 h incubation, mean ± SEM, read-out: IC50 HL-60

## C=C1C(=O)C[C@H](C(C)C)O[C@H]1C(C)C (relative stereo) [Analog 13d, Trans-2,6-diisopropyl-3-methylidenetetrahydro-4H-pyran-4-one]
HUVEC cells
  IC50: 24.7 ± 0.65 µM
HL-60 cells; HL-60 compared to normal HUVEC cells, 48 h
  selectivity, inhibitory activity in HL-60 versus HUVEC cells (cancer/healthy cell IC50 ratio): over 3 fold
HL-60 cells; [1]
  IC50: 15.7 ± 0.61 µM
HL-60 cells; [2]
  IC50: 7.65 ± 0.05 µM
MCF-7 cells
  IC50: 14 ± 1 µM

## C=C1C(=O)C[C@H](c2ccccc2)O[C@H]1C(C)C (relative stereo) [Analog 13g, Trans-2-isopropyl-3-methylidene-6-phenyltetrahydro-4H-pyran-4-one]
HUVEC cells
  IC50: 3.84 ± 0.01 µM
HL-60 cells; 48 h incubation, mean ± SEM, read-out: IC50 HL-60
  IC50: 3.69 ± 0.08 µM
HL-60 cells; [1]
  IC50: 6.49 ± 0.31 µM
HL-60 cells; [2]
  IC50: < 4 µM
MCF-7 cells
  IC50: 8.63 ± 0.07 µM
